Measurements taken from PubChem BioAssay AID192 (DTP/NCI, 2004).
“And” between values parts separate entries of the source, which are not always exact repeats. Equal values may be shown once. Inconclusive results and toxic doses are left out. The calls were made as follows: active = survival T/C of 150% or more; inactive = T/C below 125% in these data.

Tested on: BDF1 mice, B16 melanoma ip, median survival T/C
Experiment: NCI In Vivo Anticancer Drug Screen. Data for tumor model B16 Melanoma (intraperitoneal) in B6D2F1 (BDF1) mice
Settings: endpoint: median survival time, higher = longer survival
Summary of the method: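 Read-out: survival or tumor size, given as treated/control ratio. Controls received vehicle only; animals bore transplantable tumors.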

[1] = dose: 100.0 mg/kg/injection, schedule: Q01DX009 (ip), vehicle: saline with Tween-80
[2] = dose: 200.0 mg/kg/injection, schedule: Q01DX009 (ip), vehicle: saline with Tween-80
[3] = dose: 6.25 mg/kg/injection, schedule: Q01DX009 (ip), vehicle: saline
[4] = dose: 12.5 mg/kg/injection, schedule: Q01DX009 (ip), vehicle: saline
[5] = dose: 25.0 mg/kg/injection, schedule: Q01DX009 (ip), vehicle: saline

Measured: T/C

COc1ccc(C(C#N)N2CCOCC2)cc1 (stereo not drawn)
inactive: dose: 50.0 mg/kg/injection, schedule: Q01DX009 (ip), vehicle: Klucel (hydroxypropylcellulose) (HPC) 89 % of control | dose: 50.0 mg/kg/injection, schedule: Q04DX003 (ip), vehicle: Klucel (hydroxypropylcellulose) (HPC) 95 % of control | dose: 100.0 mg/kg/injection, schedule: Q04DX003 (ip), vehicle: Klucel (hydroxypropylcellulose) (HPC) 97 % of control

CCNc1nc(NCC)nc(OC)n1
inactive: dose: 50.0 mg/kg/injection, schedule: Q01DX009 (ip), vehicle: saline with Tween-80 117 % of control | dose: 66.0 mg/kg/injection, schedule: Q01DX009 (ip), vehicle: saline with Tween-80 93 % of control | [1] 95 % of control | dose: 150.0 mg/kg/injection, schedule: Q01DX009 (ip), vehicle: saline with Tween-80 93 % of control | [2] 105 % of control

c1ccc(CN2CCNCC2)cc1
inactive: [3] 108 % of control | [4] 108 % of control | [5] 106 % of control

CCC1CN2C(=N1)c1ccccc1-c1cc(Cl)ccc12 (stereo not drawn)
inactive: dose: 6.25 mg/kg/injection, schedule: Q01DX009 (ip), vehicle: suspension in saline 95 % of control | dose: 10.0 mg/kg/injection, schedule: Q01DX009 (ip), vehicle: saline 94 % of control | dose: 12.5 mg/kg/injection, schedule: Q01DX009 (ip), vehicle: suspension in saline 109 % of control | dose: 20.0 mg/kg/injection, schedule: Q01DX009 (ip), vehicle: saline 118 % of control
active: dose: 40.0 mg/kg/injection, schedule: Q01DX009 (ip), vehicle: saline 150 % of control | dose: 50.0 mg/kg/injection, schedule: Q01DX009 (ip), vehicle: suspension in saline 157 % of control

Nc1ccc(C(=O)Oc2ccc([N+](=O)[O-])cc2)c(O)c1
inactive: dose: 100.0 mg/kg/injection, schedule: Q01DX009 (ip), vehicle: Klucel (hydroxypropylcellulose) (HPC) 87 % of control | dose: 200.0 mg/kg/injection, schedule: Q01DX009 (ip), vehicle: Klucel (hydroxypropylcellulose) (HPC) 97 % of control

O=[N+]([O-])c1cc(Br)cc(Br)c1S(=O)(=O)O
inactive: dose: 100.0 mg/kg/injection, schedule: Q04DX003 (ip), vehicle: saline 100 % of control | dose: 200.0 mg/kg/injection, schedule: Q04DX003 (ip), vehicle: saline 108 % of control | dose: 400.0 mg/kg/injection, schedule: Q04DX003 (ip), vehicle: saline 104 % of control

CC(O)C(O)C(O)C(/C=N\N=C(/N)[S-])=N/N=C(\N)[S-].[Pt+2] (stereo not drawn)
inactive: [1] 95 % of control | [2] 102 % of control | dose: 400.0 mg/kg/injection, schedule: Q01DX009 (ip), vehicle: saline with Tween-80 105 % of control

O=C(Nc1ccc(C2=NCCN2)cc1)c1ccc(C(=O)Nc2ccc(C3=NCCN3)cc2)c(Cl)c1
inactive: dose: 3.12 mg/kg/injection, schedule: Q01DX009 (ip), vehicle: saline with Tween-80 93 % of control | dose: 6.25 mg/kg/injection, schedule: Q01DX009 (ip), vehicle: saline with Tween-80 104 % of control | dose: 8.0 mg/kg/injection, schedule: Q01DX009 (ip), vehicle: saline with Tween-80 104 % of control | dose: 12.5 mg/kg/injection, schedule: Q01DX009 (ip), vehicle: saline with Tween-80 108 % of control | dose: 16.0 mg/kg/injection, schedule: Q01DX009 (ip), vehicle: saline with Tween-80 102 % of control | dose: 25.0 mg/kg/injection, schedule: Q01DX009 (ip), vehicle: saline with Tween-80 105 % of control

C(/C=C/C=C/N1CCCCC1)=[N+]1CCCCC1
inactive: dose: 0.13 mg/kg/injection, schedule: Q01DX009 (ip), vehicle: saline 96 % of control | dose: 0.25 mg/kg/injection, schedule: Q01DX009 (ip), vehicle: saline 107 % of control | dose: 0.5 mg/kg/injection, schedule: Q01DX009 (ip), vehicle: saline 101 % of control | dose: 1.0 mg/kg/injection, schedule: Q01DX009 (ip), vehicle: saline 105 % of control

C[CH2][Pb]([CH2]C)([CH2]C)[O]C(=O)CBr
inactive: dose: 0.75 mg/kg/injection, schedule: Q01DX009 (ip), vehicle: Klucel (hydroxypropylcellulose) (HPC) 100 % of control | dose: 1.5 mg/kg/injection, schedule: Q01DX009 (ip), vehicle: Klucel (hydroxypropylcellulose) (HPC) 112 % of control | dose: 3.0 mg/kg/injection, schedule: Q01DX009 (ip), vehicle: Klucel (hydroxypropylcellulose) (HPC) 105 % of control and 113 % of control

C#CC(O)(/C=C\Cl)CC (stereo not drawn)
inactive: [3] 110 % of control | [4] 102 % of control | [5] 100 % of control | dose: 50.0 mg/kg/injection, schedule: Q01DX009 (ip), vehicle: saline 110 % of control | dose: 100.0 mg/kg/injection, schedule: Q01DX009 (ip), vehicle: saline 115 % of control
